The test deals with RAC-alpha serine/threonine-protein kinase [E49C,C296S,C310S,C344S] (Homo sapiens, UniProt P31749, C296S/C310S/C344S/E49C). Nature of the test: iFLik Assay. Conditions: pH 7.4. The protocol: Labeled Akt1 was diluted to 200 nM in the measurement buffer consisting of 50 mMHEPES pH 7.4, 200 mM NaCl, and 0.01% Triton-X 100. Dilution series of candidate compounds were prepared in DMSO at 21× the final desired concentration. Compounds (0.5 μL) were then mixed with labeled Akt1 (10 μL) in triplicate and with measurement buffer alone (background fluorescence control) in quadruplicate at 12different concentrations. The final compound concentrations ranged from 0.8 nM to 500 μM and each well contained 5% v/v DMSO after mixing. Plates were then covered with an adhesive plastic foil and incubated for 2 h at RT prior to measurement of emission intensities at fluorophore-specific wavelengths
RAC-alpha serine/threonine-protein kinase [E49C,C296S,C310S,C344S], sequence (P31749 whole entry E49C/C296S/C310S/C344S): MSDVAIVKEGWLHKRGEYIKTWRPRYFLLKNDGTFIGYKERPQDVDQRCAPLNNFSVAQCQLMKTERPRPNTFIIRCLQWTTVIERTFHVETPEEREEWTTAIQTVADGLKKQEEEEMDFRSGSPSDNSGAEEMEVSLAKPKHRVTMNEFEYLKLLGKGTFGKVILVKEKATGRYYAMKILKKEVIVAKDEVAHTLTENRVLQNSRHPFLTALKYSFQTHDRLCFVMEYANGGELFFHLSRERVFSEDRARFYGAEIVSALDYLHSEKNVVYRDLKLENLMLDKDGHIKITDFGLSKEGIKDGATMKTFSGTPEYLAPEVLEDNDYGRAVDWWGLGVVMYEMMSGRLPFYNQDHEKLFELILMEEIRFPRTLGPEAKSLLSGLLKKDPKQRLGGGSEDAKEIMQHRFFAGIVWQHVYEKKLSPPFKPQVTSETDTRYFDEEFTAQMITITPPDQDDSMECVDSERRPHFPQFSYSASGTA
Turning to `O=c1[nH]ccc2nc(-c3ccc(CN4CCc5ccccc5C4)cc3)c(-c3ccccc3)cc12` [2-(4-((3,4-Dihydroisoquinolin-2(1H)-yl)methyl)phenyl)-3-phenyl-1,6-naphthyridin-5(6H)-one (7c)], binding was characterised by a dissociation constant (Kd) of 6 µM.

In turn, `O=c1[nH]ccc2nc(-c3ccc(CN4CCC(n5c(=O)[nH]c6ccccc65)CC4)cc3)c(-c3ccccc3)cc12` [2-(4-((4-(2-Oxo-2,3-dihydro-1H-benzo[d]imidazol-1-yl)piperidin-1-yl)methyl)phenyl)-3-phenyl-1,6-naphthyridin-5(6H)-one (7a)] yielded a Kd of 0.41 µM.

In the case of `COc1ccc(N2CCN(Cc3ccc(-c4nc5cc[nH]c(=O)c5cc4-c4ccccc4)cc3)CC2)cc1` [2-(4-((4-(4-Methoxyphenyl)piperazin-1-yl)methyl)phenyl)-3-phenyl-1,6-naphthyridin-5(6H)-one (7e)], binding was characterised by a dissociation constant (Kd) of 7.2 µM. Against the preceding molecule, the Kd is about 18-fold higher.

`O=c1[nH]ccc2nc(-c3ccc(CN4CCC(n5c(=O)[nH]c6cc(Cl)ccc65)CC4)cc3)c(-c3ccccc3)cc12` [2-(4-((4-(5-Chloro-2-oxo-2,3-dihydro-1H-benzo[d]imidazol-1-yl)piperidin-1-yl)methyl)phenyl)-3-phenyl-1,6-naphthyridin-5(6H)-one (7b)] showed a Kd of 0.15 µM. This Kd lies about 48-fold lower than the previous one.

Turning to `O=c1[nH]ccc2nc(-c3ccc(CN4CCN(c5ncccn5)CC4)cc3)c(-c3ccccc3)cc12` [3-Phenyl-2-(4-((4-(pyrimidin-2-yl)piperazin-1-yl)methyl)phenyl)-1,6-naphthyridin-5(6H)-one (7f)], the Kd was 1.1 µM.

For the molecule `O=C(C1CCCO1)N1CCN(Cc2ccc(-c3nc4cc[nH]c(=O)c4cc3-c3ccccc3)cc2)CC1` (centres undefined) [3-Phenyl-2-(4-((4-(tetrahydrofuran-2-carbonyl)piperazin-1-yl)methyl)phenyl)-1,6-naphthyridin-5(6H)-one (7g)], the Kd was 8 µM.

The molecule `c1ccc(-c2cn(-c3ccccc3)c3ncnc(NCc4cccs4)c23)cc1` [5,7-diphenyl-N-(thiophen-2-ylmethyl)-7H-pyrrolo[2,3-d]pyrimidin-4-amine (8d)] returned a Kd of 2.2 µM.

`Cc1ccc(-n2cc(-c3ccccc3)c3c(NCc4cccs4)ncnc32)cc1Cl` [7-(3-chloro-4-methylphenyl)-5-phenyl-N-(thiophen-2-ylmethyl)-7H-pyrrolo[2,3-d]pyrimidin-4-amine (8g)]: binding was put at a Kd of 264 µM.

The molecule `Cc1cccc(-n2cc(-c3ccccc3)c3c(NCc4cccs4)ncnc32)c1` [7-(3-methylphenyl)-5-phenyl-N-(thiophen-2-ylmethyl)-7H-pyrrolo[2,3-d]pyrimidin-4-amine (8e)] registered an equilibrium dissociation constant (Kd) of 99 µM.

Turning to `Fc1ccc(-n2cc(-c3ccccc3)c3c(NCc4ccccn4)ncnc32)cc1` [7-(4-fluorophenyl)-5-phenyl-N-(pyridin-2-ylmethyl)-7H-pyrrolo[2,3-d]pyrimidin-4-amine (8c)], the affinity, expressed as Kd, was 20 µM.

The molecule `Cc1ccc(-n2cc(-c3ccccc3)c3c(NCc4cccnc4)ncnc32)cc1` [7-(4-methylphenyl)-5-phenyl-N-(pyridin-3-ylmethyl)-7H-pyrrolo[2,3-d]pyrimidin-4-amine (8b)] gave a Kd of 7.8 µM.

Regarding `Cc1ccc(-n2cc(-c3ccccc3)c3c(NCc4cccs4)ncnc32)cc1` [7-(4-methylphenyl)-5-phenyl-N-(thiophen-2-ylmethyl)-7H-pyrrolo[2,3-d]pyrimidin-4-amine (8a)], the Kd turned out to be 2.2 µM.

Take `COC(=O)C1CCN(Cc2ccc(-c3nc4cc[nH]c(=O)c4cc3-c3ccccc3)cc2)CC1` [Methyl 1-(4-(5-oxo-3-phenyl-5,6-dihydro-1,6-naphthyridin-2-yl)benzyl)piperidine-4-carboxylate (7d)]: the Kd was 0.9 µM.

The molecule `Cc1ccc(-n2cc(-c3ccccc3)c3c(NCc4ccccc4)ncnc32)cc1` [N-benzyl-7-(4-methylphenyl)-5-phenyl-7H-pyrrolo[2,3-d]pyrimidin-4-amine (8f)] had a Kd of 6 µM.
